In ChEMBL document CHEMBL4145550, “Synthesis of N-(1-(6-acetamido-5-phenylpyrimidin-4-yl) piperidin-3-yl) amide derivatives as potential inhibitors for mitotic kinesin spindle protein” (Eur J Med Chem, 2018):

How the values were obtained:
[1] = target: T1, Kinesin-like protein KIF11 (Homo sapiens, UniProt P52732); assay: Inhibition of human mitotic kinesin Eg5 motor domain (1 to 368 residues) assessed as reduction in steady-state basal ATPase activity using ATP as substrate by pyruvate kinase/lactate dehydrogenase enzyme coupled assay
T1 sequence (P52732 whole entry): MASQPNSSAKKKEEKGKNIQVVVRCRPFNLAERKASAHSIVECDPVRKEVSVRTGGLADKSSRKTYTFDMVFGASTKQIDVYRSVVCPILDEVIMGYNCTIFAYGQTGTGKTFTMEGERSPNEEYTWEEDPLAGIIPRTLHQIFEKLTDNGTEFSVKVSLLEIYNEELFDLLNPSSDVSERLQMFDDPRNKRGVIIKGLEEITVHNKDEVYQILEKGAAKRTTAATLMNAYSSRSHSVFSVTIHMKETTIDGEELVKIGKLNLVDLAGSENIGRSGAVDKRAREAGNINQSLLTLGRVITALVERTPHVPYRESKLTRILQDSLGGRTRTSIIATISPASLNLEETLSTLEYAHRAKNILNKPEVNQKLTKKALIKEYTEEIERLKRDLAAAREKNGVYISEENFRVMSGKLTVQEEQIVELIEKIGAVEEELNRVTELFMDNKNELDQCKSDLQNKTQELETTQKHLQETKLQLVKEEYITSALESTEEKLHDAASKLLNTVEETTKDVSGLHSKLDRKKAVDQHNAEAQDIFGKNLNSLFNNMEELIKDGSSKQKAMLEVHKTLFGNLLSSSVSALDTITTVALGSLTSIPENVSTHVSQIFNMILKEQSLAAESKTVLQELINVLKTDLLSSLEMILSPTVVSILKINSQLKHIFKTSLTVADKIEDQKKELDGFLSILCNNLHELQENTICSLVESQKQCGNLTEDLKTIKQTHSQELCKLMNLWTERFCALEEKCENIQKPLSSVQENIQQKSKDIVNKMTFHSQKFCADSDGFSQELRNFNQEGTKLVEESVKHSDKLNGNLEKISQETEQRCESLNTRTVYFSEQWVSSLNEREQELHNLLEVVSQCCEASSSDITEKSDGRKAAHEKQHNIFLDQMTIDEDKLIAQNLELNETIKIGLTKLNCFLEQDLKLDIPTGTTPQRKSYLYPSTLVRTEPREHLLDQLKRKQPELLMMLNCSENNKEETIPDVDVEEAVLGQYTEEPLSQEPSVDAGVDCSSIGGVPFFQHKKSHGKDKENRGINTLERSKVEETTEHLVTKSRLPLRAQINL

[2] = target: T1, Kinesin-like protein KIF11; assay: Inhibition of mitotic kinesin Eg5 (unknown origin)

CC(=O)Nc1ncnc(N2CCCC(NC(=O)c3cccc(C(F)(F)F)c3)C2)c1-c1ccccc1 (centres undefined)
IC50 [1]: 4.86 µM

CC(=O)Nc1ncnc(N2CCCC(NC(=O)COc3cccc(Cl)c3)C2)c1-c1ccccc1 (centres undefined)
IC50 [1]: 9.03 µM

COc1ccc(Nc2nc3cc(C(=O)O)ccc3n2Cc2ccccc2C(F)(F)F)cc1F
IC50 [2]: 0.459 µM

CC(=O)Nc1ncnc(N2CCCC(NC(=O)Cc3cccc(F)c3)C2)c1-c1ccccc1 (centres undefined)
IC50 [1]: 11.4 µM
